According to PMC8758724, “Molecular mechanism of agonism and inverse agonism in ghrelin receptor” (Nature Communications, 2022):
No end group written: not given here. *: point of attachment. Octanoyl = CCCCCCCC(=O)*

Key:
ghrelin receptor mutants = assay: IP1 accumulation, ghrelin receptor mutants, HEK293 cells, 37 °C 2 h (compound 21 containing 10 nM ghrelin); assay type: cell-based, human; conditions: for ghrelin-induced activation, effect of mutation: peer review file
Source text: Fig. 2 The binding mode of PF-05190457 with the ghrelin receptor. a The detailed binding mode of PF-05190457 in the orthosteric pocket of the ghrelin receptor. The |Fo| − |Fc| omit map (contoured at 3.0 σ) for PF-05190457 (shown as marine blue sticks). […] The diazaspiro core is shown in pink, arm-1 is sky blue, and arm-2 is light green. The red solid lines indicate hydrogen bonds involved in interactions with the side chains of key residues. d–f Key residues of the ghrelin receptor (wheat sticks) involved in ligand binding in cavity III (d), cavity I (e), and cavity IV (f). The binding pocket is highly hydrophobic, and the particular polar network is shown as black dotted lines. g IP1 accumulation induced by the inverse agonist PF-05190457 and antagonist compound 21. Bars represent the difference in the calculated potency (pIC50) of the inverse agonist for mutations relative to the WT ghrelin receptor. Data are colored according to extent of effect. nd not detected, **P < 0.01, ***P < 0.001 (one-way analysis of variance (ANOVA) followed by Dunnett’s test, compared with the response of WT, P < 0.001, P < 0.001, P < 0.001, P > 0.999, nd, nd, P = 0.05, nd, P < 0.001, P < 0.001, nd, nd, nd, nd, nd, nd, P < 0.01, P = 0.264, P < 0.001, nd, P < 0.001, nd from left to right). Data represent the mean ± SEM from n = 3 biologically independent experiments performed in triplicate. […] The salt bridges between E124^3.33 and R283^6.55 as well as between R102^2.63 and Q120^3.29, are broken upon PF-05190457 binding.
To measure the activity of inverse agonist PF-05190457 (Tocris, Cat. No. 6350), we carried out IP1 accumulation assays for ghrelin receptor independent of agonist. The agonist ghrelin and antagonist compound 21 were also performed as the control. The cDNA of ghrelin receptor subcloned into pcDNA3.1(+) expression vector with a HA signal sequence followed by a Flag tag at the N-terminus. Point mutations used in our study were generated by using Q5 site-Directed Mutagenesis kit (NEB). All the constructs were verified by sequencing. The constructs were expressed in HEK293 cells using PEI transfection reagent (YEASEN, 40815es03) according to the manufacturer’s instruction. Cells were harvested 48 h post transfection.
IP accumulation was measured using Cisbio IP1 assay kit (Cisbio, 62IPAPEB), which has been previously described. In brief, the harvested cells were distributed in a low volume 96-well dish and stimulated with increased concentration of inverse agonist PF-05190457, agonist ghrelin peptide or antagonist compound 21 containing 10 nM ghrelin peptide at 37 °C for 2 h. After that, d2-labeled IP1 and cryptate-labeled anti-IP1 monoclonal antibody dissolved in Lysis Buffer were added to the wells. After 1 h incubation at room temperature. IP1 was quantified using Synergy H1 microplate reader (BioTek) with excitation at 320 nm, emission at 620 nm, and 665 nm. The accumulation of IP1 was calculated according to a standard dose–response curve in GraphPad Prism 8 (GraphPad Software). Data were represented as the mean ± SEM from three independent experiments and all experiments were repeated at least three times.
Supplementary Fig. 6: IP1 accumulation assay.
(a) Expression level of the ghrelin receptor mutants. Data represent the mean ± SEM from three independent experiments performed in triplicate. ns, not significant, **p < 0.01, ***p < 0.001 (one-way analysis of variance [ANOVA] followed by Dunnett’s test, compared with the response […]
0.001, p=0.996, p=0.008, p=0.999 from left to right). Data represent the mean ± SEM from n=3 biologically independent experiments performed in triplicate.
(b) IP1 accumulation measurement induced by inverse agonist PF-05190457(left), agonist ghrelin (middle) and antagonist compound 21 (right). ns, not significant; nd, not detected; ***p < 0.001 […]
< 0.001, nd, nd, nd, p=0.264, nd, nd from left to right). Data represent the mean ± SEM from […]

[1] = system: wild-type ghrelin receptor; assay: IP1 accumulation, wild-type ghrelin receptor, HEK293 cells, 37 °C 2 h, Cisbio IP1 kit; assay type: cell-based, human; conditions: WT
Protocol: Fig. 1 Overall structures of ghrelin receptors bound to inverse agonist and agonist. a Dose-dependent responses of endogenous agonist ghrelin, inverse agonist PF-05190457 and antagonist compound 21 containing 10 nM ghrelin peptide at wild-type ghrelin receptor measured by cellular IP1 accumulation assays. […] Data represent the mean ± SEM from n = 3 biologically independent experiments performed in triplicate. b View from within the plane of the membrane. The inverse agonist-bound ghrelin receptor is represented as a wheat cartoon, and PF-05190457 is shown as a marine blue sphere. Cryo-EM structure of the agonist ghrelin-bound ghrelin receptor-Gαo1-scFv16 complex. c Ghrelin peptides and receptors are shown as deep salmon spheres and aquamarine cartoons, respectively. The Go heterotrimer and scFv16 are shown in the gray cartoon. d View from the extracellular side of the membrane. […]
IP accumulation was measured using Cisbio IP1 assay kit (Cisbio, 62IPAPEB), which has been previously described. […] IP1 was quantified using Synergy H1 microplate reader (BioTek) with excitation at 320 nm, emission at 620 nm, and 665 nm. The accumulation of IP1 was calculated according to a standard dose–response curve in GraphPad Prism 8 (GraphPad Software). […]

Substance: ghrelin: endogenous agonist, 28-amino acid peptide with octanoyl modification at the side chain of Ser+3 (GSS(Octanoyl)FLSPEHQRVQQRKESKKPPAKLQPR; UniProt Q9UBU3 24-51, looked up)
- ghrelin-induced activation, effect of mutation (ghrelin receptor mutants; D99^2.60 mutant): decreased potency of ghrelin induced activation
- potency, effect of mutation (ghrelin receptor mutants; F279^6.51A): impaired the potency
- potency, effect of mutation (ghrelin receptor mutants; F312^7.42A): impaired the potency
- ghrelin-induced activation, effect of mutation (ghrelin receptor mutants; R102^2.63 mutant): decreased potency of ghrelin induced activation
- potency, effect of mutation (ghrelin receptor mutants; W276^6.48A): impaired the potency
- activation potency [1]: high activation potency as a full agonist
